Assay results published in patent US12377063B2, “Combination therapies for managing cancer” (Emory University, priority 2019, dated 2025).

Tests used:
Type in all cases: cell-based
follower/leader cells = conditions: leaders vs followers; 72 hrs of treatment; FIG. 3D
leader cells [1] = test: Cell death in leader cells; conditions: after 72 hours
Text: (§1) Compounds were screened, and it was discovered that most compounds effective at inhibiting lead cells were typically anti-metabolic agents that disrupt OXPHOS. One such compound, alexidine hydrochloride targets mitochondrial function. Leader cells are sensitive to mitochondria-targeting agents as a class.

[2] = system: multiple lung and mixed leader:follower lines; test: Collective invasion of spheroids embedded in Matrigel; conditions: alexidine alone
Text: Brightfield representative images are shown. Solid lines designate outer perimeter. Scale bar=50 μm.
as §1
(§2) Since alexidine inhibits active PDH in leaders and Bay-876 targets GLUT1, the combination of alexidine and Bay-876 to co-target these cellular subtypes, respectively, during collective invasion was examined. To quantitatively determine synergy a combination index analyses was used. […] Importantly, normal lung epithelial cells (HBEC, MRC5) had no synergy at low and moderate doses (FIG. 8A). The effects of Bay-876 plus alexidine on invasion were examined. […] It is also contemplated that one can co-target metabolically heterogeneous populations using the combination of the leader cell targeting agent, alexidine, and the GLUT1 targeting agent, BAY-876 or the glycolytic/PPP activity of followers and OXHOS-driven biology of the leaders in a manor illustrated in the table below.

[3] = system: p-PDHS293 in leader cells; test: p-PDHS293 after alexidine treatment, leader cells; conditions: alexidine treatment for 24 hours
Text: Alexidine Dihydrochloride Induces Metabolic Reprogramming of Leader Cells Via S293 Phosphorylation of PDH
as §2

[4] = system: pPDHS293 in follower cells; test: pPDHS293 after alexidine treatment, follower cells
leader cells [5] = test: Lactate production after alexidine treatment; conditions: alexidine treatment for 24 hours
[6] = system: GLUT1 mRNA expression in followers; test: GLUT1 mRNA expression by qRT-PCR; conditions: 24 hrs, FIG. 7C
Description: (§3) To determine how GLUT1 expression in followers could be regulated upstream, signaling alterations that might contribute to altered GLUT1 expression in leaders and followers were evaluated. YAP and TAZ are transcriptional co-activators of TEAD (Hippo signaling) and regulate GLUT1 expression. YAP/TEAD 1-4 members were interrogated. […] Cells were treated with the YAP/TEAD inhibitor, verteporfin, which has promising anti-tumor activity.

H1299 cells = test: Cell number / viability after verteporfin; conditions: parental H1299 cells; 72 hours; FIG. 7D
Description: as §3

parental H1299 cells = test: Spheroid invasion assay, parental H1299; conditions: FIG. 7E
Description: as §3

**Q.** Which “sensitivity of leaders to complex I inhibitors (proliferation)” value (follower/leader cells) does the source give for `CN(C)C(=N)N=C(N)N` [metformin] here?
**A.** Its value is “increased sensitivity”.

**Q.** Which “sensitivity of leaders to complex I inhibitors (proliferation)” value (follower/leader cells) does the source give for `C/C=C(\C)[C@H](O)[C@H](C)/C=C(C)/C=C/C/C(C)=C/Cc1nc(OC)c(OC)c(O)c1C` [piericidin, piericidin A] here?
**A.** Its value is “increased sensitivity”.

**Q.** What does the source list for `CCCCC(CC)CNC(=N)NC(=N)NCCCCCCNC(=N)NC(=N)NCC(CC)CCCC` (centres unmarked) [Alexidine, 1,1′-(hexane-1,6-diyl)bis(5-(2-ethylhexyl)biguanidine)]?
**A.** cell death (leader cells [1]): no significant amount of cell death; doses decreasing invasiveness relative to doses inducing cell death ([2]; earlier time points prior to effect on proliferation): doses lower than those that induce cell death; collective invasion ([2]; multiple lung cell lines): dose-dependent inhibition; p-PDHS293 level [3]: increased p-PDHS293; impact on pPDHS293 [4]: no significant impact; lactate production (leader cells [5]): increased lactate production

**Q.** verteporfin was tested. Which “GLUT1 mRNA expression” value [6] did it give?
**A.** The value was “suppressed GLUT1 mRNA expression in followers in a dose-dependent manner”.

**Q.** What about the “proliferative properties (cell number)” value (H1299 cells) of the same compound?
**A.** The value was “significantly reduced”.

**Q.** What about the “invasive properties (invasive area)” value (parental H1299 cells) of the same compound?
**A.** The value was “significantly reduced”.
